Source: paper PMC11823630, “In vitro potentiation of tetracyclines in Pseudomonas aeruginosa by RW01, a new cyclic peptide” (Antimicrobial Agents and Chemotherapy, 2024)
Where two headings read alike, the source gives them in different places.

Experiments:
Experiment in all cases: MIC, CLSI broth microdilution in BD Phoenix AST Broth
Type in all cases: cell-based, Pseudomonas aeruginosa
P. aeruginosa PAOΔmexZ = settings: strain PAOΔmexZ
P. aeruginosa 125B = settings: strain 125B
P. aeruginosa 125A = settings: strain 125A
P. aeruginosa 41A = settings: strain 41A
P. aeruginosa PAOΔmexR = tested on: P. aeruginosa PAOΔmexR
P. aeruginosa PAOUW = settings: strain PAOUW; for MIC: agent alone, 37°C, 18–22 h, three biological replicates
P. aeruginosa PAO1 = settings: for MIC: agent alone, 37°C, 18–22 h, three biological replicates
P. aeruginosa PAOUW∆oprF = tested on: P. aeruginosa PAOUW∆oprF
P. aeruginosa PAOΔoprM = tested on: P. aeruginosa PAOΔoprM
P. aeruginosa 41B = settings: strain 41B
[1] = Pseudomonas aeruginosa, agent alone, 37°C, 18–22 h, three biological replicates
[2] = MIC of the antibiotic with fixed 100 mg/L RW01
[3] = antibiotic with RW01 at 100 mg/L
[4] = antibiotic MIC alone vs with RW01 100 mg/L
[5] = strain PAOΔmexR, antibiotic with RW01 at 100 mg/L
[6] = strain PAO1, antibiotic with RW01 at 100 mg/L
[7] = strain PAOUWΔoprF (printed PAOΔoprF), antibiotic with RW01 at 100 mg/L
[8] = strain PAOΔoprM, antibiotic with RW01 at 100 mg/L

## CN(C)c1ccc(O)c2c1C[C@H]1C[C@H]3[C@H](N(C)C)C(O)=C(C(N)=O)C(=O)[C@@]3(O)C(O)=C1C2=O [Minocycline, minocycline]
P. aeruginosa PAOΔmexZ; [1]
  MIC: 8 µg/mL
P. aeruginosa PAOΔmexZ; [2]
  Antibiotic MIC + RW01 100 mg/L: 1 µg/mL
P. aeruginosa PAOΔmexZ; [3]
  FICI: 0.160
  FICI-determined effect: Synergy (synergistic effect if FICI is ≤0.5)
P. aeruginosa 125B; [1]
  MIC: 8 µg/mL
P. aeruginosa 125B; [2]
  Antibiotic MIC + RW01 100 mg/L: 1 µg/mL
P. aeruginosa 125B; [4]
  Potentiation (fold): 8 fold
P. aeruginosa 125B; [3]
  FICI: 0.320
  FICI-determined effect: Synergy (synergistic effect if FICI is ≤0.5)
P. aeruginosa 125A; [1]
  MIC: 8 µg/mL
P. aeruginosa 125A; [2]
  Antibiotic MIC + RW01 100 mg/L: 1 µg/mL
P. aeruginosa 125A; [4]
  Potentiation (fold): 8 fold
P. aeruginosa 125A; [3]
  FICI: 0.320
  FICI-determined effect: Synergy (synergistic effect if FICI is ≤0.5)
P. aeruginosa 41A; [1]
  MIC: 8 µg/mL
P. aeruginosa 41A; [2]
  Antibiotic MIC + RW01 100 mg/L: 2 µg/mL
P. aeruginosa 41A; [4]
  Potentiation (fold): 4 fold
P. aeruginosa 41A; [3]
  FICI: 0.348
  FICI-determined effect: Synergy (synergistic effect if FICI is ≤0.5)
P. aeruginosa PAOΔmexR; Pseudomonas aeruginosa
  MIC: 8 µg/mL
P. aeruginosa PAOΔmexR; strain PAOΔmexR, MIC of the antibiotic with fixed 100 mg/L RW01
  Antibiotic MIC + RW01 100 mg/L: 1 µg/mL
P. aeruginosa PAOΔmexR; strain PAOΔmexR, antibiotic MIC alone vs with RW01 100 mg/L
  Potentiation (fold): 8 fold
P. aeruginosa PAOΔmexR; [5]
  FICI: 0.223
  FICI-determined effect: Synergy (synergistic effect if FICI is ≤0.5)
P. aeruginosa PAOUW; Pseudomonas aeruginosa, read-out: MIC
  MIC: 16 µg/mL
P. aeruginosa PAOUW
  MIC: 8 µg/mL
P. aeruginosa PAOUW; [4]
  Potentiation (fold): 8 fold
P. aeruginosa PAOUW; [3]
  FICI: 0.223
  FICI-determined effect: Synergy (synergistic effect if FICI is ≤0.5)
P. aeruginosa PAO1; Pseudomonas aeruginosa, PAO1, strain PAO1, read-out: MIC
  MIC: 8 to 16 µg/mL
P. aeruginosa PAO1; strain PAO1, MIC of the antibiotic with fixed 100 mg/L RW01
  Antibiotic MIC + RW01 100 mg/L: 2 µg/mL
P. aeruginosa PAO1; strain PAO1
  MIC: 8 µg/mL
P. aeruginosa PAO1; strain PAO1, antibiotic MIC alone vs with RW01 100 mg/L
  Potentiation (fold): 4 fold
P. aeruginosa PAO1; [6]
  FICI: 0.445
  FICI-determined effect: Synergy (synergistic effect if FICI is ≤0.5)
P. aeruginosa PAOUW∆oprF; Pseudomonas aeruginosa, strain PAOUWΔoprF, agent alone, 37°C, 18–22 h, three biological replicates
  MIC: 8 µg/mL
P. aeruginosa PAOUW∆oprF; strain PAOUWΔoprF (printed PAOΔoprF), antibiotic MIC alone vs with RW01 100 mg/L
  Potentiation (fold): 8 fold
P. aeruginosa PAOUW∆oprF; [7]
  FICI: 0.223
  FICI-determined effect: Synergy (synergistic effect if FICI is ≤0.5)
P. aeruginosa PAOUW∆oprF; strain PAOUWΔoprF, MIC of the antibiotic with fixed 100 mg/L RW01
  Antibiotic MIC + RW01 100 mg/L: 1 µg/mL
P. aeruginosa PAOΔoprM; Pseudomonas aeruginosa
  MIC: 2 µg/mL
P. aeruginosa PAOΔoprM; strain PAOΔoprM, MIC of the antibiotic with fixed 100 mg/L RW01
  Antibiotic MIC + RW01 100 mg/L: 0.5 µg/mL
P. aeruginosa PAOΔoprM; strain PAOΔoprM, antibiotic MIC alone vs with RW01 100 mg/L
  Potentiation (fold): 4 fold
P. aeruginosa PAOΔoprM; [8]
  FICI: 0.348
  FICI-determined effect: Synergy (synergistic effect if FICI is ≤0.5)
P. aeruginosa 41B; [1]
  MIC: 16 µg/mL
P. aeruginosa 41B; [4]
  Potentiation (fold): 8 fold
P. aeruginosa 41B; [3]
  FICI: 0.223
  FICI-determined effect: Synergy (synergistic effect if FICI is ≤0.5)
